Source: US20250213512A1, “TRANSDERMAL ANALGESIC FORMULATION” (MEAT & LIVESTOCK AUSTRALIA LTD, priority 2017, published 2025)
Values joined by “and” are separate entries in the source; they are usually repeats but may differ in a detail not shown here. Equal values may be shown once.

Columns and labels:
[1] = Optimising the candidate formulations: excipient effects on ketoprofen movement through cattle skin in vitro
[2] = Solubility / precipitation of NSAIDs in the vehicles tested; settings: vehicles screened
[3] = Screening of NSAID and vehicle combinations: penetration through cattle skin in vitro (Table 13)
Procedure: Hair was removed using an electric clipper and the subcutaneous fat and musculature carefully trimmed away before the skin was cut into circular sections (approximately 2 cm diameter) using a metal wad punch, and placed in airtight ziplock bags, stored at −20° C. within 5 hr of slaughter.
The skin samples were defrosted immediately prior to use and mounted on Franz diffusion cells. […] A glass cover slip was applied to each donor chamber to prevent evaporation of the donor solution. Samples (200 μL) were collected at regular intervals from the receptor chambers via the sampling port and immediately replenished with equal volumes of fresh receptor solution. At the completion of each study, the diffusions cells were dismantled and the skin discs were rinsed and stored.

[4] = Clinical study (disbudding): behaviour ethogram, mixed effect Poisson / negative binomial models; settings: dehorned calves
Procedure: Calf behaviour was monitored before and after dehoming in suitable time periods. The day before dehoming, the behaviour of all 36 calves were monitored for two hours to record the baseline variation, which was taken as 0 hour observation. Next day after dehoming, behaviour was recorded at 2-4 hour, 4-8 hour, 8-12 hour, 24 hour and 48 hours. There were 12 behaviour parameters recorded, as follows: Head shaking, Ear flicking, Tail wagging. Head rubbing, lying, ruminating, neck extending, grooming, walking, vocalising, feeding and drinking.
The method used to identify those variables was Confirmatory Factor Analysis (CFA) within Structural Equation Modelling Framework (SEM).
Separate models were used for each of the observed animal behavioural traits (FIG. 19). A mixed effect Poisson model with an animal fitted as random intercepts and time as random slope, and unstructured error term for the residuals. Behaviours trait at baseline (time 0) was centred and added to the fixed effect part of the model (essentially turning the model into a random slope model too). […] Overdispersed models (also those with excess zeros) were refitted using a negative binomial model.
Experimental time was fitted as a categorical variable to derive estimated at each time point, time 2 hr was used as the reference category. Treatment was also fitted as categorical variable, placebo as reference category. […]

[5] = treated vs untreated cattle
Procedure: Blood samples were analysed for cortisol and biomarkers once the study was completed.
A preliminary analysis of the proteins identified was undertaken using Principal Component Analysis (PCA) within the MarkerView software package (FIG. 21). This analysis looked at a comparison of groups for all time points (FIG. 21a), a comparison of dehorning vs. sham (FIG. 21b) and a comparison of treatment vs. placebo (FIG. 21c).

[6] = 10% Tolfenamic acid, vehicle KET67 (Eucalyptus oil, 70% 1,8-cineole), sample time 4 hrs
[7] = 10% Tolfenamic acid, vehicle KET67 (Eucalyptus oil, 70% 1,8-cineole), sample time 6 hrs
[8] = 10% Tolfenamic acid, vehicle KET67 (Eucalyptus oil, 70% 1,8-cineole), sample time 8 hrs
[9] = 10% Tolfenamic acid, vehicle KET68 (propylene glycol, 100% PPG), sample time 4 hrs
[10] = Tolfenamic acid 10% in vehicle KET51: Ethanol 70% EthOH, Propylene glycol 30% PPG, terpene None, 0.1M citrate, sample time 6 hrs
[11] = Tolfenamic acid 10% in vehicle KET51: Ethanol 70% EthOH, Propylene glycol 30% PPG, terpene None, 0.1M citrate, sample time 8 hrs
[12] = Tolfenamic acid 10% in vehicle KET52: Ethanol 70% EthOH, Propylene glycol 30% PPG, Menthol 50 mg/mL, 0.1M citrate, sample time 0.5 hrs
[13] = Tolfenamic acid 10% in vehicle KET52: Ethanol 70% EthOH, Propylene glycol 30% PPG, Menthol 50 mg/mL, 0.1M citrate, sample time 2 hrs
[14] = Tolfenamic acid 10% in vehicle KET52: Ethanol 70% EthOH, Propylene glycol 30% PPG, Menthol 50 mg/mL, 0.1M citrate, sample time 4 hrs
[15] = Tolfenamic acid 10% in vehicle KET52: Ethanol 70% EthOH, Propylene glycol 30% PPG, Menthol 50 mg/mL, 0.1M citrate, sample time 6 hrs
[16] = Tolfenamic acid 10% in vehicle KET52: Ethanol 70% EthOH, Propylene glycol 30% PPG, Menthol 50 mg/mL, 0.1M citrate, sample time 8 hrs
[17] = Tolfenamic acid 50%, vehicle KET39: Ethanol 50% EthOH, no co-solvent, Menthol 50 mg/mL, sample time 0.5 hrs, replicates 1-3
[18] = Tolfenamic acid 50%, vehicle KET39: Ethanol 50% EthOH, no co-solvent, Menthol 50 mg/mL, sample time 2 hrs, replicates 1-3
[19] = Tolfenamic acid 50%, vehicle KET39: Ethanol 50% EthOH, no co-solvent, Menthol 50 mg/mL, sample time 4 hrs, replicates 1-3
[20] = Vehicle KET52: 70% EthOH, 30% PPG (propylene glycol), Menthol 50 mg/mL, 0.1M citrate, drug conc 10%, sample time 0.5 hrs
[21] = Vehicle KET52: 70% EthOH, 30% PPG (propylene glycol), Menthol 50 mg/mL, 0.1M citrate, drug conc 10%, sample time 8 hrs
[22] = Vehicle KET53: 70% EthOH, 30% OA (oleyl alcohol), no terpene, 0.1M citrate, drug conc 10%, sample time 0.5 hrs
[23] = Vehicle KET53: 70% EthOH, 30% OA (oleyl alcohol), no terpene, 0.1M citrate, drug conc 10%, sample time 8 hrs
[24] = Vehicle KET54: 100% SRArl (Superfine Arlasolve), 0.1M citrate, drug conc 10%, sample time 6 hrs

CC(C)O [isopropanol]
effect of excipient on ketoprofen/NSAID penetration through cattle skin [1]: did not perform as well as ethanol

Cc1c(Cl)cccc1Nc1ccccc1C(=O)O [tolfenamic acid]
solubility in vehicles [2]: not particularly soluble in most of the vehicles tested
solubility in vehicles ([2]; listed as Tolfenamic acid): poorly soluble in almost every vehicle tested
analysis conc ([3]; 10% Tolfenamic acid, vehicle KET66 (50% Ethanol, Eucalyptus oil 21% 1,8-cineole, 0.1M citrate), sample time 0.5 hrs): 0.004
analysis conc ([3]; 10% Tolfenamic acid, vehicle KET67 (Eucalyptus oil, 70% 1,8-cineole), sample time 0.5 hrs): 0.005 and 0.003
Concentration [3, 6]: 0.03 µg/mL and 0.015 µg/mL
analysis conc [3, 6]: 0.01 and 0.005
Concentration [3, 7]: 0.018 µg/mL and 0.015 µg/mL and 0.024 µg/mL
analysis conc [3, 7]: 0.006 and 0.005 and 0.008
Concentration [3, 8]: 0.018 µg/mL and 0.015 µg/mL and 0.012 µg/mL
analysis conc [3, 8]: 0.006 and 0.005 and 0.004
analysis conc ([3]; 10% Tolfenamic acid, vehicle KET68 (propylene glycol, 100% PPG), sample time 0.5 hrs): 0.002
Concentration [3, 9]: 0.021 µg/mL and 0.012 µg/mL
analysis conc [3, 9]: 0.007 and 0.004
analysis conc ([3]; 10% Tolfenamic acid, vehicle KET68 (propylene glycol, 100% PPG), sample time 6 hrs): 0.002
analysis conc ([3]; Tolfenamic acid 10% in vehicle KET51: Ethanol 70% EthOH, Propylene glycol 30% PPG, terpene None, 0.1M citrate, sample time 2 hrs): 0.011 and 0.01
analysis conc ([3]; Tolfenamic acid 10% in vehicle KET51: Ethanol 70% EthOH, Propylene glycol 30% PPG, terpene None, 0.1M citrate, sample time 4 hrs): 0.004 and 0.003
Concentration [3, 10]: 0.012 µg/mL and 0.015 µg/mL
analysis conc [3, 10]: 0.004 and 0.005
Concentration [3, 11]: 0.018 µg/mL and 0.015 µg/mL and 0.012 µg/mL
analysis conc [3, 11]: 0.006 and 0.005 and 0.004
Concentration [3, 12]: 0.009 µg/mL
analysis conc [3, 12]: 0.003
Concentration [3, 13]: 0.012 µg/mL and 0.006 µg/mL
analysis conc [3, 13]: 0.004 and 0.002
Concentration [3, 14]: 0.009 µg/mL
analysis conc [3, 14]: 0.003
Concentration [3, 15]: 0.006 µg/mL
analysis conc [3, 15]: 0.002
Concentration [3, 16]: 0.012 µg/mL
analysis conc [3, 16]: 0.004
Concentration ([3]; Tolfenamic acid 50%, vehicle KET34: Ethanol 70% EthOH, no co-solvent, Menthol 50 mg/mL, sample time 0.5 hrs, replicates 1-3): 0 µg/mL
Concentration ([3]; Tolfenamic acid 50%, vehicle KET34: Ethanol 70% EthOH, no co-solvent, Menthol 50 mg/mL, sample time 2 hrs, replicates 1-3): 0 µg/mL
Concentration ([3]; Tolfenamic acid 50%, vehicle KET34: Ethanol 70% EthOH, no co-solvent, Menthol 50 mg/mL, sample time 4 hrs, replicates 1-3): 0 µg/mL
Concentration ([3]; Tolfenamic acid 50%, vehicle KET34: Ethanol 70% EthOH, no co-solvent, Menthol 50 mg/mL, sample time 6 hrs, replicates 1-3): 0 µg/mL
Concentration ([3]; Tolfenamic acid 50%, vehicle KET34: Ethanol 70% EthOH, no co-solvent, Menthol 50 mg/mL, sample time 8 hrs, replicates 1-3): 0 µg/mL
Concentration [3, 17]: 0 μg/mL (2×) and 0.018 μg/mL
analysis conc [3, 17]: 0.006
Concentration [3, 18]: 0 μg/mL (2×) and 0.027 μg/mL
analysis conc [3, 18]: 0.009
Concentration [3, 19]: 0.012 μg/mL and 0 μg/mL (2×)
analysis conc [3, 19]: 0.004
Concentration ([3]; Tolfenamic acid 50%, vehicle KET39: Ethanol 50% EthOH, no co-solvent, Menthol 50 mg/mL, sample time 6 hrs, replicates 1-3): 0 µg/mL
Concentration ([3]; Tolfenamic acid 50%, vehicle KET39: Ethanol 50% EthOH, no co-solvent, Menthol 50 mg/mL, sample time 8 hrs, replicates 1-3): 0 µg/mL
Concentration [3, 20]: 0.006 µg/mL
analysis conc [3, 20]: 0.002
Concentration ([3]; Vehicle KET52: 70% EthOH, 30% PPG (propylene glycol), Menthol 50 mg/mL, 0.1M citrate, drug conc 10%, sample time 2 hrs): 0 µg/mL
analysis conc ([3]; Vehicle KET52: 70% EthOH, 30% PPG (propylene glycol), Menthol 50 mg/mL, 0.1M citrate, drug conc 10%, sample time 4 hrs): 0.004
analysis conc ([3]; Vehicle KET52: 70% EthOH, 30% PPG (propylene glycol), Menthol 50 mg/mL, 0.1M citrate, drug conc 10%, sample time 6 hrs): 0.003
Concentration [3, 21]: 0.021 µg/mL and 0.012 µg/mL
analysis conc [3, 21]: 0.007 and 0.004
Concentration [3, 22]: 0.006 µg/mL
analysis conc [3, 22]: 0.002
analysis conc ([3]; Vehicle KET53: 70% EthOH, 30% OA (oleyl alcohol), no terpene, 0.1M citrate, drug conc 10%, sample time 2 hrs): 0.005
Concentration [3, 23]: 0.141 µg/mL and 0.24 µg/mL and 0.12 µg/mL
analysis conc [3, 23]: 0.047 and 0.08 and 0.04
analysis conc ([3]; Vehicle KET54: 100% SRArl (Superfine Arlasolve), 0.1M citrate, drug conc 10%, sample time 0.5 hrs): 0.002
Concentration ([3]; Vehicle KET54: 100% SRArl (Superfine Arlasolve), 0.1M citrate, drug conc 10%, sample time 2 hrs): 0 µg/mL
Concentration ([3]; Vehicle KET54: 100% SRArl (Superfine Arlasolve), 0.1M citrate, drug conc 10%, sample time 4 hrs): 0 µg/mL
Concentration [3, 24]: 0.009 µg/mL and 0.006 µg/mL
analysis conc [3, 24]: 0.003 and 0.002 and 0.004

CCO [Ethanol, ethanol]
effect of excipient on ketoprofen/NSAID penetration through cattle skin [1]: significantly enhanced penetration compared to other alcohols

CC(C(=O)O)c1cccc(C(=O)c2ccccc2)c1 (centres unmarked) [ketoprofen]
head shaking compared with the placebo group [4]: significantly different from the placebo group
effect on key biomarkers of pain and inflammation [5]: significantly affected key biomarkers of pain and inflammation

CCCCCCCCCCCCCC(=O)OC(C)C [IPM, isopropyl myristate]
effect of excipient on ketoprofen/NSAID penetration through cattle skin [1]: proving the more effective
